From article PMC12238268, “The immunomodulatory p43 secreted protein of Trichuris whipworm parasites is a lipid carrier that binds signalling lipids and precursors” (Scientific Reports, 2025)

Columns and labels:
Assay type in all cases: binding
[1] = target: T1, p43 (Tm-DLP-1) (Trichuris muris, UniProt A0A5S6QYG9); assay: fluorescence titration
T1 construct: native, purified from adult worm excretory/secretory medium by Ni-NTA (natural His-rich tail) and Superdex 75; signal peptide predicted cleaved between 17 and 18
T1 sequence (A0A5S6QYG9 entry or part of it): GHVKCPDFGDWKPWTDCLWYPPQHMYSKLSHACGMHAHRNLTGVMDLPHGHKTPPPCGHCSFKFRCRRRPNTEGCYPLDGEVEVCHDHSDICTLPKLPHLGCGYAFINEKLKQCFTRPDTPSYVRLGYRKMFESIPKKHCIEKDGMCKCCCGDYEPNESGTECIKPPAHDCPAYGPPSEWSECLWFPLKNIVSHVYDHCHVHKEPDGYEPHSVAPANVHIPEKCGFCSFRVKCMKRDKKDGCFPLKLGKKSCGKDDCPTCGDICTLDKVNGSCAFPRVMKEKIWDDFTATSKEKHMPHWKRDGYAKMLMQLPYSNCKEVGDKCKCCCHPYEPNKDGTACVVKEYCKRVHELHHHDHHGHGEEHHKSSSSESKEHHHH

[2] = target: T1, p43 (Tm-DLP-1); assay: intrinsic fluorescence enhancement of ligand; settings: PBS pH 7.2
[3] = target: T1, p43 (Tm-DLP-1); assay: fluorescence enhancement and blue shift of probe; settings: approximately 1 μM DACA; PBS pH 7.2

CN(C)c1cccc2c(S(=O)(=O)NCCCCCCCCCCC(=O)O)cccc12 [DAUDA, 11-((5-dimethylaminonaphthalene-1-sulfonyl)amino)undecanoic]
Kd [1]: 350 nM

CC1=C(/C=C/C(C)=C/C=C/C(C)=C/CO)C(C)(C)CCC1 [retinol]
intrinsic fluorescence enhancement of ligand ([2]; approximately 1 μM retinol): p43 bound retinol, from which it was displaceable by oleic acid (Fig. 2A)

CC\C=C/C=C/C=C/C=C\CCCCCCCC(=O)O [cis-parinaric acid]
intrinsic fluorescence enhancement of ligand ([2]; approximately 4 μM cPnA): p43 bound cPnA strongly and was displaceable with oleic acid (Fig. 1C)

CCCCCCC(NS(=O)(=O)c1cccc2c(N(C)C)cccc12)C(=O)O (stereo not shown) [dansyl aminocaprylic acid]
fluorescence enhancement and blue shift of probe [3]: essentially the same observations with another fluorescent probe, dansyl aminocaprylic acid (DACA)
